Non-standard residues stand in square brackets, D forms with d. Residues, ends and D or L forms follow the SMILES beside them. *: point of attachment. εLys(Nα-Palmitoyl) = CCCCCCCCCCCCCCCC(=O)N[C@@H](CCCCN*)C(=O)O; Aib = CC(C)(N)C(=O)O
Columns and labels:
[1] = target: T1, Glucagon-like peptide-1 receptor (GLP1R) (Homo sapiens, UniProt P43220); experiment: Agonist activity on GLP1R, cAMP response element luciferase reporter gene in HEK293 cells; format: cell-based; settings: HEK293 cells stably transfected with GLP1R and pCRE-Luc, 5 hours incubation; read-out: Maximum reaction rate
T1 construct: expressed in transfected cells; host or cells: HEK293
T1 sequence (P43220 24-463, species assumed): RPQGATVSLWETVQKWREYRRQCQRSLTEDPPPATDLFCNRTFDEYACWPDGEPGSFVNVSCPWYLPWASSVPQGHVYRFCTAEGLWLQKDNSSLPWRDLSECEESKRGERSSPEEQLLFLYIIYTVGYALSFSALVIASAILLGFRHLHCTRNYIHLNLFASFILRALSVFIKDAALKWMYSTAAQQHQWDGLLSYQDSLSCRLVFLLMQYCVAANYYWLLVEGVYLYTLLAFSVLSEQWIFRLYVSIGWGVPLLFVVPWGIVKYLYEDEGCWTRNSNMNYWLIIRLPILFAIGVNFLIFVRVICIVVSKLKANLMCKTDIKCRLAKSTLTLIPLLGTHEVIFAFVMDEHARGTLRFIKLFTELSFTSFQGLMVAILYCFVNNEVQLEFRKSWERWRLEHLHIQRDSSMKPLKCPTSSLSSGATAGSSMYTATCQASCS
Source text: GLP1R is a receptor coupled with Gs protein, of which the binding with the agonists will result in an increase of intracellular cAMP concentration. In the present experiment, GLP1R and the luciferase reporter gene plasmid regulated by cAMP response elements are co-transfected into HEK293 cells. When the compound binds to the receptor and activates the receptors, the expression of the luciferase will increase. The activation status of the compound to GLP1R can be learned by testing the activity of the luciferase.
2. The compounds or positive drugs having a certain concentration gradient were added (3 wells per concentration) and incubated at 37° C. for 5 hours. The negative control was solvent DMSO.
3. 50 μl culture medium was taken from each well, and 50 μl of the luciferase substrate were added and vortexed for 10 minutes.
4. 80 μl reaction solution was taken and transferred to a white 96 well plate, then detected on the Invision microplate reader (enzyme-labelling measuring instrument).

[2] = test system: db/db mice with type 2 diabetes; experiment: Random blood glucose of db/db mice after single subcutaneous injection; format: in vivo; settings: for random blood glucose: n = 8; for decrease rate of random blood glucose: versus control group; for random blood glucose level (words, test conclusions): dose of 3 μg/kg (so in the source)
Protocol: db/db mice with type 2 diabetes were divided into six groups based on a random blood glucose and body weight (8 per group). […] The random blood glucose of the mice is determined at differete time after administration.
Preparation method: 1 bottle of the compound (2 mg/bottle) was dissolved with double-distilled water to prepare a colorless and transparent solution of which the concentration is 2 mg/mL. […] “ACCU-CHEK® Advantage” blood glucose meter form Roche was used to determine the blood glucose.
Route and volume of administration: Single subcutaneous injection dose, dose volume was 5 mL/kg. […]
The random blood glucoses of db/db mice were measured.
Each group has 8 mice, half male and half female. The animals of each group were administered with the test compounds or solvent control respectively through single subcutaneous injection.

[3] = cited from earlier work
[4] = 3 μg/kg single s.c., 1 h after administration, X ± s
[5] = 3 μg/kg single s.c., 1 h after administration
[6] = 3 μg/kg single s.c., 2 h after administration, X ± s
[7] = 3 μg/kg single s.c., 2 h after administration
[8] = 3 μg/kg single s.c., 4 h after administration, X ± s
[9] = 3 μg/kg single s.c., 4 h after administration
[10] = 3 μg/kg single s.c., 8 h after administration, X ± s
[11] = 3 μg/kg single s.c., 8 h after administration
[12] = 3 μg/kg single s.c., after one hour, P<0.05
[13] = 3 μg/kg single s.c., before administration, X ± s
[14] = 10 μg/kg single s.c., 1 h after administration
[15] = 10 μg/kg single s.c., 1 h after administration, ± s
[16] = 10 μg/kg single s.c., 2 h after administration
[17] = 10 μg/kg single s.c., 2 h after administration, ± s
[18] = 10 μg/kg single s.c., 4 h after administration
[19] = 10 μg/kg single s.c., 4 h after administration, ± s
[20] = 10 μg/kg single s.c., 8 h after administration
[21] = 10 μg/kg single s.c., 8 h after administration, ± s
[22] = 10 μg/kg single s.c., 24 h after administration
[23] = 10 μg/kg single s.c., 24 h after administration, ± s
[24] = 10 μg/kg single s.c., after 24 hours
[25] = 10 μg/kg single s.c., before administration, ± s

With `CCCCCCCCCCCCCCCC(=O)N[C@@H](CCCCNC(=O)[C@H](CO)NC(=O)[C@@H]1CCCN1C(=O)[C@@H]1CCCN1C(=O)[C@@H]1CCCN1C(=O)[C@H](C)NC(=O)CNC(=O)[C@H](CO)NC(=O)[C@H](CO)NC(=O)[C@@H]1CCCN1C(=O)CNC(=O)CNC(=O)[C@H](CCCNC(=N)N)NC(=O)[C@@H](NC(=O)[C@H](CC(C)C)NC(=O)[C@H](Cc1c[nH]c2ccccc12)NC(=O)[C@H](C)NC(=O)[C@@H](NC(=O)[C@H](Cc1ccccc1)NC(=O)[C@H](CCC(=O)O)NC(=O)[C@H](CCCCN)NC(=O)[C@H](C)NC(=O)[C@H](C)NC(=O)[C@H](CCC(=O)O)NC(=O)[C@H](CCC(=O)O)NC(=O)[C@H](CCC(=O)O)NC(=O)[C@H](CC(C)C)NC(=O)[C@H](Cc1ccc(O)cc1)NC(=O)[C@H](CO)NC(=O)[C@H](CO)NC(=O)[C@@H](NC(=O)[C@H](CC(=O)O)NC(=O)[C@H](CO)NC(=O)[C@@H](NC(=O)[C@H](Cc1ccccc1)NC(=O)[C@@H](NC(=O)CNC(=O)[C@H](CCC(=O)O)NC(=O)[C@@H](C)NC(=O)[C@@H](N)Cc1c[nH]cn1)[C@@H](C)O)[C@@H](C)O)C(C)C)[C@@H](C)CC)C(C)C)C(=O)O` [HS-20003] (H-H[dA]EGTFTSDVSSYLEEEAAKEFIAWLVRGGPSSGAPPPS-{εLys(Nα-Palmitoyl)}; N-terminus and C-terminus assumed) the Emax [1] was 87.9%, the random blood glucose [2, 4] was 19.56 ± 1.19 mmol/L and the “decrease rate of random blood glucose” value [2, 5] was 17.33%. For the same molecule, the random blood glucose [2, 6] was 19.44 ± 1.48 mmol/L, the “decrease rate of random blood glucose” value [2, 7] was 14.09% and the random blood glucose [2, 8] was 19.63 ± 1.12 mmol/L. For the same molecule, the “decrease rate of random blood glucose” value [2, 9] was 10.80%, the random blood glucose [2, 10] was 22.59 ± 1.05 mmol/L and the “decrease rate of random blood glucose” value [2, 11] was 11.03%. For the same molecule, the “random blood glucose values compared with those of the control group” value ([2]; 3 μg/kg single s.c., after 2 h, 4 h and 8 h) was “no significant difference”, the “random blood glucose values compared with those of the control group” value [2, 12] was “decreased significantly” and the random blood glucose [2, 13] was 25.16 ± 1.49 mmol/L. For the same molecule, the “decrease rate of random blood glucose” value [2, 14] was 23.62%, the random blood glucose [2, 15] was 20.74 ± 0.98 mmol/L and the “decrease rate of random blood glucose” value [2, 16] was 25.93%. For the same molecule, the random blood glucose [2, 17] was 21.10 ± 0.80 mmol/L, the “decrease rate of random blood glucose” value [2, 18] was 36.49% and the random blood glucose [2, 19] was 19.54 ± 1.80 mmol/L. For the same molecule, the “decrease rate of random blood glucose” value [2, 20] was 26.12%, the random blood glucose [2, 21] was 22.14 ± 2.16 mmol/L and the “decrease rate of random blood glucose” value [2, 22] was 11.89%. For the same molecule, the random blood glucose [2, 23] was 24.45 ± 1.55 mmol/L, the “random blood glucose values compared with those of the control group” value ([2]; 10 μg/kg single s.c., after 2 h, 4 h and 8 h) was “still keep at a lower level” and the “random blood glucose values compared with those of the control group” value [2, 24] was “no significant difference”. For the same molecule, the “random blood glucose values compared with those of the control group” value ([2]; 10 μg/kg single s.c., after one hour, P<0.01) was “decreased significantly”, the random blood glucose [2, 25] was 23.20 ± 1.36 mmol/L and the “random blood glucose level (words, test conclusions)” value ([2]; single s.c.) was “decreased obviously”.
With `CCCCCCCCCCCCCCCC(=O)N[C@@H](CCCCNC(=O)[C@H](CO)NC(=O)[C@@H]1CCCN1C(=O)[C@@H]1CCCN1C(=O)[C@@H]1CCCN1C(=O)[C@H](C)NC(=O)CNC(=O)[C@H](CO)NC(=O)[C@H](CO)NC(=O)[C@@H]1CCCN1C(=O)CNC(=O)CNC(=O)[C@H](CCCNC(=N)N)NC(=O)[C@@H](NC(=O)[C@H](CC(C)C)NC(=O)[C@H](Cc1c[nH]c2ccccc12)NC(=O)[C@H](C)NC(=O)[C@@H](NC(=O)[C@H](Cc1ccccc1)NC(=O)[C@H](CCC(=O)O)NC(=O)[C@H](CCCCN)NC(=O)[C@H](C)NC(=O)[C@H](C)NC(=O)[C@H](CCC(=O)O)NC(=O)[C@H](CCC(=O)O)NC(=O)[C@H](CCC(=O)O)NC(=O)[C@H](CC(C)C)NC(=O)[C@H](Cc1ccc(O)cc1)NC(=O)[C@H](CO)NC(=O)[C@H](CO)NC(=O)[C@@H](NC(=O)[C@H](CC(=O)O)NC(=O)[C@H](CO)NC(=O)[C@@H](NC(=O)[C@H](Cc1ccccc1)NC(=O)[C@@H](NC(=O)CNC(=O)[C@H](CCC(=O)O)NC(=O)C(C)(C)NC(=O)[C@@H](N)Cc1c[nH]cn1)[C@@H](C)O)[C@@H](C)O)C(C)C)[C@@H](C)CC)C(C)C)C(=O)O` [HS-20004] (H-H[Aib]EGTFTSDVSSYLEEEAAKEFIAWLVRGGPSSGAPPPS-{εLys(Nα-Palmitoyl)}; N-terminus and C-terminus assumed) the Emax [1] was 90.8%, the random blood glucose [2, 4] was 20.11 ± 1.28 mmol/L and the “decrease rate of random blood glucose” value [2, 5] was 15.00%. The “decrease rate of random blood glucose” value ([2]; 3 μg/kg single s.c., 1 h after administration, listed as 20004) was 15.00%, the random blood glucose [2, 6] was 18.81 ± 1.50 mmol/L and the “decrease rate of random blood glucose” value [2, 7] was 16.85%. For the same molecule, the random blood glucose [2, 8] was 17.98 ± 1.38 mmol/L, the “decrease rate of random blood glucose” value [2, 9] was 18.30% and the random blood glucose [2, 10] was 23.30 ± 1.47 mmol/L. For the same molecule, the “decrease rate of random blood glucose” value [2, 11] was 8.22%, the “random blood glucose values compared with those of the control group” value ([2]; 3 μg/kg single s.c., after 2 h and 4 h, P<0.05) was “kept a lower level and had significant difference” and the “random blood glucose values compared with those of the control group” value ([2]; 3 μg/kg single s.c., after 8 hours) was “no significant difference”. For the same molecule, the “random blood glucose values compared with those of the control group” value [2, 12] was “decreased significantly”, the random blood glucose [2, 13] was 25.11 ± 1.63 mmol/L and the “decrease rate of random blood glucose” value [2, 14] was 36.20%. For the same molecule, the random blood glucose [2, 15] was 19.63 ± 1.81 mmol/L, the “decrease rate of random blood glucose” value [2, 16] was 27.82% and the random blood glucose [2, 17] was 21.86 ± 1.66 mmol/L. The “decrease rate of random blood glucose” value [2, 18] was 28.30%, the random blood glucose [2, 19] was 21.44 ± 1.68 mmol/L and the “decrease rate of random blood glucose” value [2, 20] was 23.32%. The random blood glucose [2, 21] was 23.80 ± 1.46 mmol/L, the “decrease rate of random blood glucose” value [2, 22] was 11.52% and the random blood glucose [2, 23] was 25.64 ± 1.85 mmol/L. The “random blood glucose values compared with those of the control group” value ([2]; 10 μg/kg single s.c., after 4 h and 8 h) was “still kept at a lower level”, the “random blood glucose values compared with those of the control group” value [2, 24] was “not significantly different” and the random blood glucose [2, 25] was 23.18 ± 1.65 mmol/L. The “random blood glucose values compared with those of the control group” value ([2]; 10 μg/kg single s.c., time not specified) was “decreased immediately and significantly”, the “effect on reducing random blood glucose compared within the series” value ([2]; single s.c.) was “much better effect” and the “random blood glucose level (words, test conclusions)” value ([2]; single s.c.) was “decreased obviously”.
In the case of glucagon-like peptide-1 [GLP-1], the in vivo half-life [3] is given as “about 2 minutes”.

— US8614182B2 (Jiangsu Hansoh Pharmaceuticals Co., Ltd., priority 2009, dated 2013)
